In patent US12371428B2 (Exelixis, Inc., priority 2019, dated 2025):
Read-outs that look alike come from different tables or passages of the source.

Legend:
Format in all cases: cell-based
[1] = target: AXL (phospho-AXL, Gas6-stimulated A-172 glioblastoma cells) (Homo sapiens (Human), UniProt P30530); test: AXL autophosphorylation ELISA in A-172 cells (Example E); details: cellular activity, read-out: Axl IC50
Protocol: A-172 cells were incubated at 37° C., 5% CO2 for 24 h and then starved for 24 h in serum-free medium. Test compounds were serially diluted to produce an 8-point dose curve in fresh serum-free medium to a final concentration of 0.3% DMSO (vehicle) and added to the cells and incubated for 1 h. […] Lysates were collected and 100 μL/well added into the human phospho-AXL DuoSet IC ELISA (R&D Systems #DYC2228-2). […] Positive control wells (100% activity) contained Gas6-stimulated, DMSO-treated cell lysates. Negative control wells (0% activity) contained Gas6-stimulated, reference inhibitor-treated cell lysates. IC50 values were calculated by nonlinear regression analysis using a 4-parameter logistic curve fit in ActivityBase XE (IDBS).

[2] = target: Met (phospho-Met, HGF-stimulated PC-3 prostate cancer cells) (Homo sapiens (Human), UniProt P08581); test: Met autophosphorylation ELISA in PC-3 cells (Example F); details: cellular activity, read-out: c-Met IC50
In short: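 IC50 values derive from a 4-parameter logistic fit of phospho-Met (panTyr) sandwich ELISA signals in PC-3 lysates, scaled between DMSO and reference-inhibitor wells. Cells, starved 3 h in serum-free medium, had 1 h compound exposure (8 doses, 0.3% DMSO) before 10 min stimulation with 100 ng/mL HGF.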

[3] = target: Mer (phospho-Mer, MERTK-transfected 293A cells) (Homo sapiens (Human), UniProt Q12866); test: Mer autophosphorylation ELISA in transient transfected 293A cells (Example H); details: cellular activity
In short: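 293A cells transiently transfected with human MERTK were treated 1 h in serum-free medium with an 8-point compound dilution (0.3% DMSO final). Lysates were assayed by phospho-Mer sandwich ELISA against a phospho-Mer standard; IC50 came from a 4-parameter logistic fit, normalised to DMSO (100%) and reference-inhibitor (0%) controls.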

[4] = AXL autophosphorylation ELISA in A-172 cells
[5] = Met autophosphorylation ELISA in PC-3 cells
[6] = Mer autophosphorylation ELISA in transient transfected 293A cells

Chain of AXL (phospho-AXL, Gas6-stimulated A-172 glioblastoma cells) (P30530 26-894): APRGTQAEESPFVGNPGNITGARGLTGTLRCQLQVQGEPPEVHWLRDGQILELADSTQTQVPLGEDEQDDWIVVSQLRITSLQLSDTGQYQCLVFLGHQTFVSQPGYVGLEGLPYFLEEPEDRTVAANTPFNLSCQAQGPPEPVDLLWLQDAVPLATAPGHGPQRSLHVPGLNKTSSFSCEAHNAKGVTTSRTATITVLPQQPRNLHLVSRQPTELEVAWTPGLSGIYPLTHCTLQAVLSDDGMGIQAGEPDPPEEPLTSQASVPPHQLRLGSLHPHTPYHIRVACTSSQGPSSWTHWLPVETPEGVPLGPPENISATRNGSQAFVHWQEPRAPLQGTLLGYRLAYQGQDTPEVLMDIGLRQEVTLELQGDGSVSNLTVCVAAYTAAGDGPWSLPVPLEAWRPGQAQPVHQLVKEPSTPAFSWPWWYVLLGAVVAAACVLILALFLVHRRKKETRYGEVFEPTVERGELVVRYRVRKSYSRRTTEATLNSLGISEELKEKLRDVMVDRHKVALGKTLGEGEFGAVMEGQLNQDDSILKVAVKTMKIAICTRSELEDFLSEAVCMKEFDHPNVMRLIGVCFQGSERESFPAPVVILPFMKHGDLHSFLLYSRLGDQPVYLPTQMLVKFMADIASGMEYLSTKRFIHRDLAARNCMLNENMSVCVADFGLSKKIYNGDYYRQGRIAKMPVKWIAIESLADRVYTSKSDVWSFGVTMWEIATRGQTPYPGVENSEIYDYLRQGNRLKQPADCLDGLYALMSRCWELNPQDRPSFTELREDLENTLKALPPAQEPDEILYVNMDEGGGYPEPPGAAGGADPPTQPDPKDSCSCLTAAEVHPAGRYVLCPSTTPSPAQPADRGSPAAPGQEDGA
Chain of Met (phospho-Met, HGF-stimulated PC-3 prostate cancer cells) (P08581 25-1390): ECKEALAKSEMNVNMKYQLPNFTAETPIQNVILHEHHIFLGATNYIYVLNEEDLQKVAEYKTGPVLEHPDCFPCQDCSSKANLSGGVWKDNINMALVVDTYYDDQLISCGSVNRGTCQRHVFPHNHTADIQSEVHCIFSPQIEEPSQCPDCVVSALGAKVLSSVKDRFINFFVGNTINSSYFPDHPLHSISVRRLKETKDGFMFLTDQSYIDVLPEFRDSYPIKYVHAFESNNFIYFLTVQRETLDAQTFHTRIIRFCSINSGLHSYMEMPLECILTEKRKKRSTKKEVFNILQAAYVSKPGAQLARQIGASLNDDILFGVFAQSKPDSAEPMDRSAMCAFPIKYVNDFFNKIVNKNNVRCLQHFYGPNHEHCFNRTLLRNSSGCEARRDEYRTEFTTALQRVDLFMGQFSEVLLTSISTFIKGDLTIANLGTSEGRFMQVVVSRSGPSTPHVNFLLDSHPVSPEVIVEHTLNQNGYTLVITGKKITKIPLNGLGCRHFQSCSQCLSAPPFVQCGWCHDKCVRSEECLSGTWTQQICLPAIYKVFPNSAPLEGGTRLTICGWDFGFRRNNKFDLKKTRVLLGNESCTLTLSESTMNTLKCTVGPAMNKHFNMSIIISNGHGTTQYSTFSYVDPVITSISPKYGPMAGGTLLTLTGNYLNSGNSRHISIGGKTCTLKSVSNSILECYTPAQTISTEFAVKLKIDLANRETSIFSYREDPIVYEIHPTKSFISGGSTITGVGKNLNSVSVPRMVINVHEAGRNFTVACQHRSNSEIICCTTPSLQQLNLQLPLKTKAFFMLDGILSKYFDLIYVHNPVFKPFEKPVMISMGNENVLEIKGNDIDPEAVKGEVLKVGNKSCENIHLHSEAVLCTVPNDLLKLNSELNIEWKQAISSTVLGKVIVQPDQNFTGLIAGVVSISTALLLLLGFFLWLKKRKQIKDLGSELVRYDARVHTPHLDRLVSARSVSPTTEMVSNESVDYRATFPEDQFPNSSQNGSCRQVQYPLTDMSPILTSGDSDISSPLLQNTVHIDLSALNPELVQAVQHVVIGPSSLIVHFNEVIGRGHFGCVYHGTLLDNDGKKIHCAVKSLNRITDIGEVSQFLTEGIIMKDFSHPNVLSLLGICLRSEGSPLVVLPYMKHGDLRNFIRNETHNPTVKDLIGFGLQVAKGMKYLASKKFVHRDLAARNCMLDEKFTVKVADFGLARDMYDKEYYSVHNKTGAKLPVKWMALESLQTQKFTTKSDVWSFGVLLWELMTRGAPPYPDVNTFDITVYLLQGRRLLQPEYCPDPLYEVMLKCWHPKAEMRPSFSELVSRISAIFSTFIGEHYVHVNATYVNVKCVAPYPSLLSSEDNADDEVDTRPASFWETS
Chain of Mer (phospho-Mer, MERTK-transfected 293A cells) (Q12866 21-999): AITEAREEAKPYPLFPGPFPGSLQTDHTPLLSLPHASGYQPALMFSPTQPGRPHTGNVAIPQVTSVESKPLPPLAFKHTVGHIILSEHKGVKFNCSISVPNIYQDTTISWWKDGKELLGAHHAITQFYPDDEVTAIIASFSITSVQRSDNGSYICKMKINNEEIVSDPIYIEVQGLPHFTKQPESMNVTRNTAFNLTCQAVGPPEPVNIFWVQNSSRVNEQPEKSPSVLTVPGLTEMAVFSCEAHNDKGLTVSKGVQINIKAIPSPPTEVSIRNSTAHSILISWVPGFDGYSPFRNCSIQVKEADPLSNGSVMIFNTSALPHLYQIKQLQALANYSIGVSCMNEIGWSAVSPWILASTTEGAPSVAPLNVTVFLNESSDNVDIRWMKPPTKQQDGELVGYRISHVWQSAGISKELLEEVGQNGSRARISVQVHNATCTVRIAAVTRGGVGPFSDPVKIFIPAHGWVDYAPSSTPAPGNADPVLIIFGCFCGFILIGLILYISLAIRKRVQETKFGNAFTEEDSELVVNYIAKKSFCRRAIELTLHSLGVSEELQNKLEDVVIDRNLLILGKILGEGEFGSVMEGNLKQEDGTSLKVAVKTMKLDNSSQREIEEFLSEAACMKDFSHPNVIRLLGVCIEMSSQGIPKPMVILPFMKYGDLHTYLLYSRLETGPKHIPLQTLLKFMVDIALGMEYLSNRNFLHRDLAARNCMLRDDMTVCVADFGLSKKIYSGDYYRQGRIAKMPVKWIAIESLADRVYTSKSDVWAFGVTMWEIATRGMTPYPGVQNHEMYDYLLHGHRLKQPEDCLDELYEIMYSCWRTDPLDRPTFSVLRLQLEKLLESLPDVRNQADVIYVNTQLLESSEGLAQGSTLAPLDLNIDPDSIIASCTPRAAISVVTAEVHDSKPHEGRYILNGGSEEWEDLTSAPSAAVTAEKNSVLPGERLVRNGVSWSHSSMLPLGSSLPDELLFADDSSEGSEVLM

Row | IC50 [1, 4] | IC50 [2, 5] | IC50 [3, 6] | IC50 ([1]; A-172 cells) | IC50 ([2]; PC-3 cells) | IC50 ([3]; transfected 293A cells) | Structure (SMILES)
1 | < 100 nM | < 100 nM | < 100 nM | – | – | – | COCc1c(C(=O)Nc2ccc(Oc3ccnc4cc(OC)c(OC)nc34)c(F)c2)c(=O)c(-c2ccc(F)cc2)c(C)n1C [Compound 336, N-[4-[(6,7-dimethoxy-1,5-naphthyridin-4-yl)oxy]-3-fluorophenyl]-5-(4-fluorophenyl)-2-(methoxymethyl)-1,6-dimethyl-4-oxopyridine-3-carboxamide]
2 | < 100 nM | < 100 nM | < 100 nM | – | – | – | CNC(=O)c1cc2c(Oc3ccc(NC(=O)c4cnc(C)c(-c5ccc(F)cc5)c4O)cc3)ccnc2cn1 [Compound 398, 4-[4-[[5-(4-fluorophenyl)-4-hydroxy-6-methylpyridine-3-carbonyl]amino]phenoxy]-N-methyl-1,7-naphthyridine-6-carboxamide]
3 | < 100 nM | < 100 nM | < 100 nM | – | – | – | COc1cc2nccc(Oc3ccc(NC(=O)c4cn(CCF)c(C)c(-c5ccc(F)cc5C)c4=O)cc3F)c2nc1OC [Compound 801, N-[4-[(6,7-dimethoxy-1,5-naphthyridin-4-yl)oxy]-3-fluorophenyl]-1-(2-fluoroethyl)-5-(4-fluoro-2-methylphenyl)-6-methyl-4-oxopyridine-3-carboxamide]
4 | < 100 nM | < 100 nM | < 100 nM | – | – | – | COc1cnc2c(Oc3ccc(NC(=O)c4cn(CCF)c(C)c(-c5ccc(F)cc5C)c4=O)cc3)ccnc2c1 [Compound 798, 1-(2-fluoroethyl)-5-(4-fluoro-2-methylphenyl)-N-[4-[(7-methoxy-1,5-naphthyridin-4-yl)oxy]phenyl]-6-methyl-4-oxopyridine-3-carboxamide]
5 | – | – | – | < 100 nM | < 100 nM | < 100 nM | COc1cc(F)ccc1-c1cn(CCF)c(C)c(C(=O)Nc2ccc(Oc3ccnc4cc(OC)c(OC)nc34)c(F)c2)c1=O [Compound 805, N-[4-[(6,7-dimethoxy-1,5-naphthyridin-4-yl)oxy]-3-fluorophenyl]-1-(2-fluoroethyl)-5-(4-fluoro-2-methoxyphenyl)-2-methyl-4-oxopyridine-3-carboxamide]
6 | – | – | – | < 100 nM | < 100 nM | < 100 nM | COc1nc2c(Oc3ccc(NC(=O)c4c(C)nc(C)c(-c5ccc(F)cc5C)c4O)cc3F)ccnc2cc1N [Compound 804, N-[4-[(7-amino-6-methoxy-1,5-naphthyridin-4-yl)oxy]-3-fluorophenyl]-5-(4-fluoro-2-methylphenyl)-4-hydroxy-2,6-dimethylpyridine-3-carboxamide]
7 | < 100 nM | < 100 nM | < 100 nM | – | – | – | CCOCc1nc(C)c(-c2ccc(F)cc2)c(O)c1C(=O)Nc1ccc(Oc2ccnc3cc(OC)cnc23)c(F)c1 [Compound 214, 2-(Ethoxymethyl)-N-[3-fluoro-4-[(7-methoxy-1,5-naphthyridin-4-yl)oxy]phenyl]-5-(4-fluorophenyl)-4-hydroxy-6-methylpyridine-3-carboxamide]
8 | < 100 nM | < 100 nM | < 100 nM | – | – | – | COc1cnc2c(Oc3ccc(NC(=O)c4cn(CC(F)F)c(C)c(-c5ccc(F)cc5)c4=O)cc3F)ccnc2c1 [Compound 625, 1-(2,2-Difluoroethyl)-N-[3-fluoro-4-[(7-methoxy-1,5-naphthyridin-4-yl)oxy]phenyl]-5-(4-fluorophenyl)-6-methyl-4-oxopyridine-3-carboxamide]
9 | 100 to 300 nM | 100 to 300 nM | < 100 nM | – | – | – | COc1cc2nccc(Oc3ccc(NC(=O)c4nnc(C)c(-c5ccc(F)cc5)c4SC)cc3F)c2nc1OC [Compound 602, N-[4-[(6,7-Dimethoxy-1,5-naphthyridin-4-yl)oxy]-3-fluorophenyl]-5-(4-fluorophenyl)-6-methyl-4-methylsulfanylpyridazine-3-carboxamide]
10 | < 100 nM | < 100 nM | < 100 nM | – | – | – | COc1cc2nccc(Oc3ccc(NC(=O)c4cc(F)c(C)n(-c5ccc(F)cc5)c4=O)cc3F)c2nc1OC [Compound 337, N-[4-[(6,7-dimethoxy-1,5-naphthyridin-4-yl)oxy]-3-fluorophenyl]-5-fluoro-1-(4-fluorophenyl)-6-methyl-2-oxopyridine-3-carboxamide]
11 | < 100 nM | < 100 nM | < 100 nM | – | – | – | CCOCc1nc(C)c(-c2ccc(F)cc2)c(O)c1C(=O)Nc1ccc(Oc2ccnc3cc(OC)c(OC)nc23)c(F)c1 [Compound 213, N-[4-[(6,7-Dimethoxy-1,5-naphthyridin-4-yl)oxy]-3-fluorophenyl]-2-(ethoxymethyl)-5-(4-fluorophenyl)-4-hydroxy-6-methylpyridine-3-carboxamide]
12 | < 100 nM | < 100 nM | < 100 nM | – | – | – | COc1ccc2nccc(Oc3ccc(NC(=O)c4c(C)ncc(-c5ccc(F)cc5C)c4O)cc3)c2n1 [Compound 493, 5-(4-fluoro-2-methylphenyl)-4-hydroxy-N-[4-[(6-methoxy-1,5-naphthyridin-4-yl)oxy]phenyl]-2-methylpyridine-3-carboxamide]
13 | < 100 nM | < 100 nM | < 100 nM | – | – | – | COc1cc2nccc(Oc3ccc(NC(=O)c4c(C)nc(C)c(-c5ccc(F)cc5F)c4O)cc3F)c2nc1OC [Compound 209, 5-(2,4-Difluorophenyl)-N-[4-[(6,7-dimethoxy-1,5-naphthyridin-4-yl)oxy]-3-fluorophenyl]-4-hydroxy-2,6-dimethylpyridine-3-carboxamide]
14 | < 100 nM | < 100 nM | < 100 nM | – | – | – | COc1cnc2c(Oc3ccc(NC(=O)c4cn(CCF)c(C)c(-c5ccc(F)cc5C)c4=O)cc3F)ccnc2c1 [Compound 799, 1-(2-fluoroethyl)-N-[3-fluoro-4-[(7-methoxy-1,5-naphthyridin-4-yl)oxy]phenyl]-5-(4-fluoro-2-methylphenyl)-6-methyl-4-oxopyridine-3-carboxamide]
15 | – | – | – | < 100 nM | < 100 nM | < 100 nM | COc1nc2c(Oc3ccc(NC(=O)c4cn(C)c(C)c(-c5ccc(F)cc5)c4=O)cc3F)ccnc2cc1N [Compound 803, N-[4-[(7-amino-6-methoxy-1,5-naphthyridin-4-yl)oxy]-3-fluorophenyl]-5-(4-fluorophenyl)-1,6-dimethyl-4-oxopyridine-3-carboxamide]
16 | < 100 nM | < 100 nM | < 100 nM | – | – | – | COc1cc2nccc(Oc3ccc(NC(=O)c4cn(CCF)c(C)c(-c5ccc(F)cc5C)c4=O)cc3)c2nc1OC [Compound 800, N-[4-[(6,7-dimethoxy-1,5-naphthyridin-4-yl)oxy]phenyl]-1-(2-fluoroethyl)-5-(4-fluoro-2-methylphenyl)-6-methyl-4-oxopyridine-3-carboxamide]
17 | < 100 nM | < 100 nM | < 100 nM | – | – | – | COc1cc2nccc(Oc3ccc(NC(=O)c4cn(CC(F)F)c(C)c(-c5ccc(F)cc5)c4=O)cc3F)c2nc1OC [Compound 623, 1-(2,2-Difluoroethyl)-N-[4-[(6,7-dimethoxy-1,5-naphthyridin-4-yl)oxy]-3-fluorophenyl]-5-(4-fluorophenyl)-6-methyl-4-oxopyridine-3-carboxamide]
18 | < 100 nM | < 100 nM | < 100 nM | – | – | – | COCc1nc(C)c(-c2ccc(F)cc2F)c(O)c1C(=O)Nc1ccc(Oc2ccnc3cc(OC)cnc23)c(F)c1 [Compound 211, 5-(2,4-Difluorophenyl)-N-[3-fluoro-4-[(7-methoxy-1,5-naphthyridin-4-yl)oxy]phenyl]-4-hydroxy-2-(methoxymethyl)-6-methylpyridine-3-carboxamide]
19 | – | – | – | < 100 nM | < 100 nM | < 100 nM | COc1cc2nccc(Oc3ccc(NC(=O)c4c(C)n(CCF)cc(-c5ccc(F)c(C)c5)c4=O)cc3F)c2nc1OC [Compound 806, N-[4-[(6,7-dimethoxy-1,5-naphthyridin-4-yl)oxy]-3-fluorophenyl]-1-(2-fluoroethyl)-5-(4-fluoro-3-methylphenyl)-2-methyl-4-oxopyridine-3-carboxamide]
20 | < 100 nM | < 100 nM | < 100 nM | – | – | – | COc1cc2nccc(Oc3ccc(NC(=O)c4cc(F)c(C)n(-c5ccc(F)cc5)c4=O)cc3)c2nc1OC [Compound 338, N-[4-[(6,7-dimethoxy-1,5-naphthyridin-4-yl)oxy]phenyl]-5-fluoro-1-(4-fluorophenyl)-6-methyl-2-oxopyridine-3-carboxamide]
21 | < 100 nM | < 100 nM | < 100 nM | – | – | – | COCc1nc(C)c(-c2ccc(F)cc2F)c(O)c1C(=O)Nc1ccc(Oc2ccnc3cc(OC)c(OC)nc23)c(F)c1 [Compound 212, 5-(2,4-Difluorophenyl)-N-[4-[(6,7-dimethoxy-1,5-naphthyridin-4-yl)oxy]-3-fluorophenyl]-4-hydroxy-2-(methoxymethyl)-6-methylpyridine-3-carboxamide]
